Reference: US10221173B2, “Chemical compounds” (AstraZeneca AB, priority 2017, dated 2019)
Converted amounts (≈) assume the structure as drawn.

Experiments:
[1] = Thermodynamic solubility (shake-flask); format: physicochemical; details: aqueous phosphate buffer, 25 °C, pH 7.4, aqueous buffer, thermodynamic from solid, phosphate buffer pH 7.4, 24 hours
[2] = target: T1, Estrogen Receptor (ERα) in MCF-7 cells (Homo sapiens (Human), UniProt P03372); experiment: MCF-7 ER down-regulation assay (immuno-fluorescence); format: cell-based
Protocol: The ability of compounds to down-regulate Estrogen Receptor (ER) numbers was assessed in a cell based immuno-fluorescence assay using the MCF-7 human ductal carcinoma breast cell line. MCF-7 cells were revived directly from a cryovial (approx 5×10^6 cells) in Assay Medium (phenol red free Dulbecco's Modified Eagle's medium (DMEM); Sigma D5921) containing 2 mM L-Glutamine and 5% (v/v) Charcoal/Dextran treated foetal calf serum. Cells were syringed once using a sterile 18G×1.5 inch (1.2×40 mm) broad gauge needle and cell density was measured using a Coulter Counter (Beckman). […] Following cell seeding, plates were incubated overnight at 37° C., 5% CO2 (Liconic carousel incubator). Test data was generated using the LabCyte Echomodel 555 compound reformatter which is part of an automated workcell (Integrated Echo 2 workcell). Compound stock solutions (10 mM) of the test compounds were used to generate a 384 well compound dosing plate (Labcyte P-05525-CV1). […] 40 μL of DMSO added to wells in row P on the source plate allowed for DMSO normalisation across the dose range. To dose the control wells 40 μL of DMSO was added to row O1 and 40 μL of 100 μM fulvestrant in DMSO was added to row O3 on the compound source plate.
The Echo uses acoustic technology to perform direct microplate-to-microplate transfers of DMSO compound solutions to assay plates. The system can be programmed to transfer volumes as low as 2.5 nL in multiple increments between microplates and in so doing generates a serial dilution of compound in the assay plate which is then back-filled to normalise the DMSO concentration across the dilution range. […] The fixing method described above was carried out on the Integrated Echo 2 workcell. Immunostaining was performed using an automated AutoElisa workcell. The PBS/Proclin was aspirated from all wells and the cells permeabilised with 40 μL PBS containing 0.5% Tween™ 20 (v/v) for 1 hour at room temperature. The plates were washed three times in 250 μL of PBS/0.05% (v/v) Tween 20 with Proclin (PBST with a Biocide preservative) and then 20 μL of ERα (SP1) Rabbit monoclonal antibody (Thermofisher) 1:1000 in PBS/Tween™/3% (w/v) Bovine Serum Albumin was added. The plates were incubated overnight at 4° C. (Liconic carousel incubator) and then washed three times in 250 μL of PBS/0.05% (v/v) Tween™ 20 with Proclin (PBST). The plates were then incubated with 20 μL/well of a goat anti-rabbit IgG AlexaFluor 594 or goat anti-rabbit AlexaFluor 488 antibody (Molecular Probes) with Hoechst at 1:5000 in PBS/Tween™/3% (w/v) Bovine Serum Albumin for 1 hour at room temperature. The plates were then washed three times in 250 μL of PBS/0.05% (v/v) Tween™ 20 with Proclin (PBST with a Biocide preservative). 20 μL of PBS was added to each well and the plates covered with a black plate seal and stored at 4° C. before being read. […] The mean total intensity was normalized for cell number giving the total intensity per cell. The data was exported into a suitable software package (such as Origin) to perform curve fitting analysis.

[3] = target: estrogen receptor (ERα) in CAMA-1 cells (Homo sapiens (Human), UniProt P03372); experiment: Western blotting assay, ER down-regulation in CAMA-1; format: cell-based; details: CAMA-1, 100 nM compound, 48 h, vs 100 nM fulvestrant
[4] = Human plasma protein binding (equilibrium dialysis); format: in vitro ADME
[5] = target: recombinant human Estrogen Receptor alpha ligand binding domain (ER alpha-LBD (GST)) (Homo sapiens (Human), UniProt P03372); experiment: ERα binding assay (LanthaScreen TR-FRET competition)
[6] = Log D (shake flask, 1-octanol/aqueous buffer); format: physicochemical; details: 1-octanol/aqueous buffer, pH 7.4, pH 7.4
hERG potassium channel = hERG potassium channel (Homo sapiens (Human), UniProt Q12809)
Protocol: The assay was conducted as follows with all reagents used at room temperature unless otherwise stated.
All compounds were acoustically dispensed in quadruplicate using a Labcyte Echo.
Calculation of results is performed using APC package within Genedata. For the routine normalization of well data with Neutral and Inhibitor control well groups as reference, GeneData Assay Analyzer uses the following equation to normalize the signal values to the desired signal range:
[formula] x is the measured raw signal value of a well is the median of the measured signal values for the Central Reference (Neutral) wells on a plate is the median of the measured signal values for the Scale Reference (Inhibitor) wells on a plate CR is the desired median normalized value for the Central Reference (Neutral) SR is the desired median normalized value for the Scale Reference (Inhibitor)

[7] = target: T1, Estrogen Receptor (ERα) in MCF-7 cells; experiment: Western blotting assay, ER down-regulation in MCF-7; format: cell-based; details: MCF-7, 100 nM compound, 48 h, vs 100 nM fulvestrant
ER = ER (Homo sapiens (Human), UniProt P03372); details: 500 mg monthly dose; cited from earlier work
Chain of ER (P03372 whole entry): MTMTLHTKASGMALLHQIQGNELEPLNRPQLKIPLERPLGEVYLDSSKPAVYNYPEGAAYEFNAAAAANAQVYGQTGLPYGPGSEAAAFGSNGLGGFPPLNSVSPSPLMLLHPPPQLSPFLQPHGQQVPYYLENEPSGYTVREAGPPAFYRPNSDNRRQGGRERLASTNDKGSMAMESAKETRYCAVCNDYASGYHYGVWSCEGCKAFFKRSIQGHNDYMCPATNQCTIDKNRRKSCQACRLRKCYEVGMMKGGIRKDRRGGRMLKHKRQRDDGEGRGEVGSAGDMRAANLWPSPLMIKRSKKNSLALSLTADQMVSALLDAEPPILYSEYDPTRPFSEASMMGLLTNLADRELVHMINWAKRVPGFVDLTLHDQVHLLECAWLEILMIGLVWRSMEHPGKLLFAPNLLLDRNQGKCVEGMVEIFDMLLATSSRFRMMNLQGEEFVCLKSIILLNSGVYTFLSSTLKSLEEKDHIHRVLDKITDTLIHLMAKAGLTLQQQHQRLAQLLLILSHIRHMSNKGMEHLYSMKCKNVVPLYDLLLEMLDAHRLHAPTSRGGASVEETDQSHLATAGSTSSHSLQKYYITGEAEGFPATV

Chain of hERG potassium channel (Q12809 whole entry): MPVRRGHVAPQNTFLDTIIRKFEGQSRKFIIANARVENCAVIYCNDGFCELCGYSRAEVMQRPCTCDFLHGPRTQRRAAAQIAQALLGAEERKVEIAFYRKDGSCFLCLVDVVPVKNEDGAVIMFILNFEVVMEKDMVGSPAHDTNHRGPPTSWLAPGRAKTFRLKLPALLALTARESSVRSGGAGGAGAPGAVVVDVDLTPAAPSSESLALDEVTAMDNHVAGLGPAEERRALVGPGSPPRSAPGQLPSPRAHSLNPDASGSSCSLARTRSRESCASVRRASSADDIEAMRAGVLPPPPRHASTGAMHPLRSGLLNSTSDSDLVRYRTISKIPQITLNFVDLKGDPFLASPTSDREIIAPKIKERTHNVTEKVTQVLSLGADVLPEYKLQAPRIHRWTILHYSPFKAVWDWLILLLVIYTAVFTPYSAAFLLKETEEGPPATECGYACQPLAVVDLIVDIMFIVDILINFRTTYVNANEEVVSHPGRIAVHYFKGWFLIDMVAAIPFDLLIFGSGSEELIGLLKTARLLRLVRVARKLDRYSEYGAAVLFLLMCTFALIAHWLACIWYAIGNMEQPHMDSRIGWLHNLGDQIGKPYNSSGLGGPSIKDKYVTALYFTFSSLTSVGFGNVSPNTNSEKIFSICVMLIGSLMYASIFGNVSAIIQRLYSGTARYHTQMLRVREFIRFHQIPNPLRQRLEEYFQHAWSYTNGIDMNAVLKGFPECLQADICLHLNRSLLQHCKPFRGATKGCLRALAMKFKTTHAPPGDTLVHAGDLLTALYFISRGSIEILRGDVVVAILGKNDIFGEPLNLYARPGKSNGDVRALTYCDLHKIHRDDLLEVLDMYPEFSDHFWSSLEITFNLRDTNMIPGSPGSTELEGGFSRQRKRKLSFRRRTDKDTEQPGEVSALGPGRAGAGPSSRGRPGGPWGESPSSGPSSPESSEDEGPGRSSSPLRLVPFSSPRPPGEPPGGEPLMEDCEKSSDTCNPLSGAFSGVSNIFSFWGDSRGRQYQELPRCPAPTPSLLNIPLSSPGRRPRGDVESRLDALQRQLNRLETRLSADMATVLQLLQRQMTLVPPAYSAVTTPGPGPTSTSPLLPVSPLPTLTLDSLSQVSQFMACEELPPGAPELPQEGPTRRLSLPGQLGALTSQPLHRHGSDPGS
T1 sequence (P03372 whole entry): as the sequence (P03372 whole entry) above
Chain of estrogen receptor (ERα) in CAMA-1 cells (P03372 whole entry): as above
Chain of recombinant human Estrogen Receptor alpha ligand binding domain (ER alpha-LBD (GST)) (P03372 307-554): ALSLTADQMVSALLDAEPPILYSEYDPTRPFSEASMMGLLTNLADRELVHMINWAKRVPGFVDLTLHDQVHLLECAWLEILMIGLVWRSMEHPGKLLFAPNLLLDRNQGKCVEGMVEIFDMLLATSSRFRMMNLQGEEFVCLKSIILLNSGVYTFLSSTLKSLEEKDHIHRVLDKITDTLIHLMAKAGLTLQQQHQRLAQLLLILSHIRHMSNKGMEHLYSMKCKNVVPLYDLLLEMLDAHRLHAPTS

Structure (SMILES): C[C@@H]1Cc2c([nH]c3c(F)cccc23)[C@@H](c2c(F)ccc(OCCNCCCF)c2F)N1CC(F)(F)CO [Example 60, 3-((1R,3R)-1-(2,6-difluoro-3-(2-((3-fluoropropyl)amino)ethoxy)phenyl)-8-fluoro-3-methyl-1,3,4,9-tetrahydro-2H-pyrido[3,4-b]indol-2-yl)-2,2-difluoropropan-1-ol]
- solubility at 24 h [1]: 351 µM (≈ 186 µg/mL)
- IC50 [2]: 0.12 nM
- CAMA1 Western % ER deg vs Fv [3]: 97%
- Human plasma protein binding (% free) [4]: 1.9 % free
- IC50 [5]: 0.84 nM
- logD [6]: 3
- IC50 (hERG potassium channel): 4400 nM
- MCF7 Western % ER deg vs Fv [7]: 92%

Structure (SMILES): C[C@@H]1Cc2c([nH]c3cc(F)ccc23)[C@@H](c2c(F)ccc(OCCNCCCF)c2F)N1CC(F)(F)CO [Example 61, 3-((1R,3R)-1-(2,6-difluoro-3-(2-((3-fluoropropyl)amino)ethoxy)phenyl)-7-fluoro-3-methyl-1,3,4,9-tetrahydro-2H-pyrido[3,4-b]indol-2-yl)-2,2-difluoropropan-1-ol]
- solubility at 24 h [1]: 446 µM (≈ 236 µg/mL)
- IC50 [2]: 0.19 nM
- CAMA1 Western % ER deg vs Fv [3]: 83%
- Human plasma protein binding (% free) [4]: 2.0 % free
- IC50 [5]: 0.79 nM
- logD [6]: 3
- IC50 (hERG potassium channel): 2700 nM
- MCF7 Western % ER deg vs Fv [7]: 94%

Structure (SMILES): C[C@@H]1Cc2c([nH]c3cccc(F)c23)[C@@H](c2c(F)ccc(OCCNCCCF)c2F)N1CC(F)(F)CO [Example 62, 3-((1R,3R)-1-(2,6-difluoro-3-(2-((3-fluoropropyl)amino)ethoxy)phenyl)-5-fluoro-3-methyl-1,3,4,9-tetrahydro-2H-pyrido[3,4-b]indol-2-yl)-2,2-difluoropropan-1-ol]
- solubility at 24 h [1]: 302 µM (≈ 160 µg/mL)
- IC50 [2]: 0.076 nM
- CAMA1 Western % ER deg vs Fv [3]: 96%
- Human plasma protein binding (% free) [4]: 1.2 % free
- IC50 [5]: 0.71 nM
- logD [6]: 3.3
- IC50 (hERG potassium channel): 5000 nM
- MCF7 Western % ER deg vs Fv [7]: 95%

Structure (SMILES): Cc1ccc2[nH]c3c(c2c1)C[C@@H](C)N(CC(F)(F)CO)[C@@H]3c1c(F)ccc(OCCNCCCF)c1F [Example 63, 3-((1R,3R)-1-(2,6-difluoro-3-(2-((3-fluoropropyl)amino)ethoxy)phenyl)-3,6-dimethyl-1,3,4,9-tetrahydro-2H-pyrido[3,4-b]indol-2-yl)-2,2-difluoropropan-1-ol]
- solubility at 24 h [1]: 273 µM (≈ 143 µg/mL)
- IC50 [2]: 0.32 nM
- CAMA1 Western % ER deg vs Fv [3]: 85%
- Human plasma protein binding (% free) [4]: 0.97 % free
- IC50 [5]: 1.1 nM
- logD [6]: 3.1
- IC50 (hERG potassium channel): 4700 nM
- MCF7 Western % ER deg vs Fv [7]: 94%

Structure (SMILES): C[C@@H]1Cc2c([nH]c3ccc(F)cc23)[C@@H](c2c(F)cnc(OCCNCCCF)c2F)N1CC(F)(F)CO [Example 65, 3-((1R,3R)-1-(3,5-difluoro-2-(2-((3-fluoropropyl)amino)ethoxy)pyridin-4-yl)-6-fluoro-3-methyl-1,3,4,9-tetrahydro-2H-pyrido[3,4-b]indol-2-yl)-2,2-difluoropropan-1-ol]
- solubility at 24 h [1]: 462 µM (≈ 245 µg/mL)
- IC50 [2]: 0.058 nM
- CAMA1 Western % ER deg vs Fv [3]: 97%
- Human plasma protein binding (% free) [4]: 1.9 % free
- IC50 [5]: 0.64 nM
- logD [6]: 3
- IC50 (hERG potassium channel): 9400 nM
- MCF7 Western % ER deg vs Fv [7]: 94%

Structure (SMILES): C[C@@H]1Cc2c([nH]c3ccccc23)[C@@H](c2c(F)ccc(NCCNCCCF)c2F)N1CC(F)(F)F [Example 88, N1-(2,4-difluoro-3-((1R,3R)-3-methyl-2-(2,2,2-trifluoroethyl)-2,3,4,9-tetrahydro-1H-pyrido[3,4-b]indol-1-yl)phenyl)-N2-(3-fluoropropyl)ethane-1,2-diamine]
- solubility at 24 h [1]: 118 µM (≈ 58.8 µg/mL)
- IC50 [2]: 0.28 nM
- CAMA1 Western % ER deg vs Fv [3]: 93%
- Human plasma protein binding (% free) [4]: 0.58 % free
- IC50 [5]: 2.2 nM
- logD [6]: 3.4
- IC50 (hERG potassium channel): 4800 nM
- MCF7 Western % ER deg vs Fv [7]: 90%

Structure (SMILES): COc1ccc(NCCNCCCF)c(F)c1[C@@H]1c2[nH]c3ccccc3c2C[C@@H](C)N1CC(F)(F)F [Example 90, N1-(2-fluoro-4-methoxy-3-((1R,3R)-3-methyl-2-(2,2,2-trifluoroethyl)-2,3,4,9-tetrahydro-1H-pyrido[3,4-b]indol-1-yl)phenyl)-N2-(3-fluoropropyl)ethane-1,2-diamine]
- solubility at 24 h [1]: 365 µM (≈ 186 µg/mL)
- IC50 [2]: 0.3 nM
- CAMA1 Western % ER deg vs Fv [3]: 93%
- Human plasma protein binding (% free) [4]: 1.1 % free
- IC50 [5]: 0.65 nM
- logD [6]: 2.8
- IC50 (hERG potassium channel): 5000 nM
- MCF7 Western % ER deg vs Fv [7]: 76%

Structure (SMILES): Cc1c(OCCNCCCF)ccnc1[C@@H]1c2[nH]c3ccccc3c2C[C@@H](C)N1CC(F)(F)CO [Example 96, 2,2-difluoro-3-((1S,3R)-1-(4-(2-((3-fluoropropyl)amino)ethoxy)-3-methylpyridin-2-yl)-3-methyl-1,3,4,9-tetrahydro-2H-pyrido[3,4-b]indol-2-yl)propan-1-ol]
- solubility at 24 h [1]: 960 µM (≈ 471 µg/mL)
- IC50 [2]: 0.2 nM
- CAMA1 Western % ER deg vs Fv [3]: 100%
- Human plasma protein binding (% free) [4]: 7.1 % free
- IC50 [5]: 1.4 nM
- logD [6]: 2.4
- IC50 (hERG potassium channel): 10000 nM
- MCF7 Western % ER deg vs Fv [7]: 94%

Structure (SMILES): C[C@@H]1Cc2c([nH]c3ccccc23)[C@@H](c2nccc(OCCNCCCF)c2F)N1CC(F)(F)CO [Example 97, 2,2-difluoro-3-((1S,3R)-1-(3-fluoro-4-(2-((3-fluoropropyl)amino)ethoxy)pyridin-2-yl)-3-methyl-1,3,4,9-tetrahydro-2H-pyrido[3,4-b]indol-2-yl)propan-1-ol]
- solubility at 24 h [1]: > 1000 µM
- IC50 [2]: 0.66 nM
- CAMA1 Western % ER deg vs Fv [3]: 84%
- Human plasma protein binding (% free) [4]: 6.8 % free
- IC50 [5]: 2.2 nM
- logD [6]: 1.8
- IC50 (hERG potassium channel): 18000 nM
- MCF7 Western % ER deg vs Fv [7]: 89%

Structure (SMILES): C[C@@H]1Cc2c([nH]c3ccccc23)[C@@H](c2c(F)cnc(OCCNCCCF)c2F)N1CC(F)(F)F [Example 107, N-(2-((3,5-difluoro-4-((1R,3R)-3-methyl-2-(2,2,2-trifluoroethyl)-2,3,4,9-tetrahydro-1H-pyrido[3,4-b]indol-1-yl)pyridin-2-yl)oxy)ethyl)-3-fluoropropan-1-amine]
- solubility at 24 h [1]: 120 µM (≈ 60.1 µg/mL)
- IC50 [2]: 0.21 nM
- CAMA1 Western % ER deg vs Fv [3]: 98%
- Human plasma protein binding (% free) [4]: 1 % free
- IC50 [5]: 1.3 nM
- logD [6]: 3.6
- IC50 (hERG potassium channel): 8100 nM
- MCF7 Western % ER deg vs Fv [7]: 95%

Structure (SMILES): C[C@]12CC[C@@H]3c4ccc(O)cc4C[C@@H](CCCCCCCCC[S+]([O-])CCCC(F)(F)C(F)(F)F)[C@H]3[C@@H]1CC[C@@H]2O (stereo partly drawn) [Fulvestrant]
- turnover of the receptor in patient samples (ER): less than 50%
